From patent US20110301170A1, “Inhibitors of JNK” (priority 2010, published 2011)
Where a name gives a salt, the structure may show the parent alone.

Test system: not given
Experiment: not given
Conditions: not given
Work on `C=C(C)c1cccc2c1ccn2-c1ccnc(N[C@H]2CC[C@H](C(=O)N3CCn4cnnc4C3)CC2)n1` (as salt: HCl) [Compound 25, (5,6-Dihydro-8H-[1,2,4]triazolo[4,3-a]pyrazin-7-yl)-{4-[4-(4-isopropenyl-indol-1-yl)-pyrimidin-2-ylamino]-cyclohexyl}-methanone] yielded a melting point of 186 to 188 °C. `Cc1cccc2c1nnn2-c1ccnc(N[C@H]2CC[C@H](C(=O)N3CCn4cnnc4C3)CC2)n1` (as salt: HCl) [Compound 34, (5,6-Dihydro-8H-[1,2,4]triazolo[4,3-a]pyrazin-7-yl)-{4-[4-(4-methyl-benzotriazol-1-yl)-pyrimidin-2-ylamino]-cyclohexyl}-methanone] gave a melting point of 236 to 238 °C. In the case of `CC(C)(O)c1cccc2c1nnn2-c1ccnc(N[C@H]2CC[C@H](C(=O)N3CCn4cnnc4C3)CC2)n1` (as salt: HCl) [Compound 38, (5,6-Dihydro-8H-[1,2,4]triazolo[4,3-a]pyrazin-7-yl)-(4-{4-[4-(1-hydroxy-1-methyl-ethyl)-benzotriazol-1-yl]-pyrimidin-2-ylamino}-cyclohexyl)-methanone], the melting point is reported as 180 to 200 °C. Work on `O=C([C@H]1CC[C@H](Nc2nccc(-n3nnc4c(OC(F)F)cccc43)n2)CC1)N1CCn2cnnc2C1` (as salt: HCl) [Compound 44, {4-[4-(4-Dilfuoromethoxy-benzotriazol-1-yl)-pyrimidin-2-ylamino]-cyclohexyl}-(5,6-dihydro-8H-[1,2,4]triazolo[4,3-a]pyrazin-7-yl)-methanone] yielded a melting point of 185 to 190 °C. Compound `Cc1nnc2n1CCN(C(=O)[C@H]1CC[C@H](Nc3nccc(-n4ccc5c(OC(F)F)cccc54)n3)CC1)C2` (as salt: HCl) [Compound 28, {4-[4-(4-Difluoromethoxy-indol-1-yl)-pyrimidin-2-ylamino]-cyclohexyl}-(3-methyl-5,6-dihydro-8H-[1,2,4]triazolo[4,3-a]pyrazin-7-yl)-methanone] has a melting point of 205 to 210 °C.

Test system: T1, JNK
T1 construct: Human JNK2α2 assay contains 1 nM enzyme; Human JNK1α1 assay contains 2 nM enzyme
Experiment: JNK Assay in vitro (phosphorylation of GST-ATF2 with [γ-33P] ATP)
Type: biochemical, Human
Conditions: IC50 affinity values; JNK isoform (JNK1α1, JNK2α2 or JNK3) not stated; Km concentrations of ATP and substrate; 30° C. for 30 min
Protocol: JNK activity was measured by phosphorylation of GST-ATF2 (19-96) with [-^33P] ATP. […] Human JNK2α2 assay contains 1 nM enzyme, 1 μM ATF2, 8 μM ATP with 1 uCi [γ-^33P] ATP. Human JNK1α1 assay contains 2 nM enzyme, 1 μM ATF2, 6 μM ATP with 1 μCi [γ-^33P] ATP. Human JNK3 (Upstate Biotech #14-501M) assay contains 2 nM enzyme, 1 μM ATF2, 4 μM ATP with 1 μCi [γ-^33P] ATP. The enzyme assay was carried out in the presence or absence of several compound concentrations. JNK and compound were pre-incubated for 10 min., followed by initiation of the enzymatic reaction by adding ATP and the substrate. The reaction mixture was incubated at 30° C. for 30 min. At the end of incubation, the reaction was terminated by transferring 25 μl of the reaction mixture to 150 μl of 10% glutathione Sepharose® slurry (Amersham #27-4574-01) containing 135 mM EDTA. The reaction product was captured on the affinity resin, and washed on a filtration plate (Millipore, MABVNOB50) with phosphate buffered saline for six times to remove free radionucleotide. The incorporation of ^33P into ATF2 was quantified on a microplate scintillation counter (Packard Topcount). Compound inhibition potency on JNK was measured by IC50 value generated from ten concentration inhibition curves fitted into the 3-parameter model: % inhibition=Maximum/(1+(IC50/[Inhibitor])^slope). Data were analyzed on Microsoft Excel for parameter estimation.
Work on `O=C([C@H]1CC[C@H](Nc2nccc(-n3ncc4c(OCC5CCS(=O)(=O)C5)cccc43)n2)CC1)N1CCn2ccnc2C1` (stereo partly drawn) [Compound 15, (5,6-Dihydro-8H-imidazo[1,2-a]pyrazin-7-yl)-(4-{4-[4-(1,1-dioxo-tetrahydro-1λ6-thiophen-3-ylmethoxy)-indazol-1-yl]-pyrimidin-2-ylamino}-cyclohexyl)-methanone] yielded an IC50 of 12 nM. `Cc1cnc2n1CCN(C(=O)[C@H]1CC[C@H](Nc3nccc(-n4nnc5c(C(C)(C)O)cccc54)n3)CC1)C2` [Compound 41, (4-{4-[4-(1-Hydroxy-1-methyl-ethyl)-benzotriazol-1-yl]-pyrimidin-2-ylamino}-cyclohexyl)-(3-methyl-5,6-dihydro-8H-imidazo[1,2-a]pyrazin-7-yl)-methanone] gave an IC50 of 52 nM. Compound `Cc1cccc2c1nnn2-c1ccnc(N[C@H]2CC[C@H](C(=O)N3CCn4cc(C(F)(F)F)nc4C3)CC2)n1` [Compound 33, {4-[4-(4-Methyl-benzotriazol-1-yl)-pyrimidin-2-ylamino]-cyclohexyl}-(2-trifluoromethyl-5,6-dihydro-8H-imidazo[1,2-a]pyrazin-7-yl)-methanone] has an IC50 of 58 nM. Work on `CC(C)(O)c1cccc2c1nnn2-c1ccnc(N[C@H]2CC[C@H](C(=O)N3CCn4cnnc4C3)CC2)n1` [Compound 38, (5,6-Dihydro-8H-[1,2,4]triazolo[4,3-a]pyrazin-7-yl)-(4-{4-[4-(1-hydroxy-1-methyl-ethyl)-benzotriazol-1-yl]-pyrimidin-2-ylamino}-cyclohexyl)-methanone] yielded an IC50 of 49 nM. For `Cc1cccc2c1nnn2-c1ccnc(N[C@H]2CC[C@H](C(=O)N3CCn4cnnc4C3)CC2)n1` [Compound 34, (5,6-Dihydro-8H-[1,2,4]triazolo[4,3-a]pyrazin-7-yl)-{4-[4-(4-methyl-benzotriazol-1-yl)-pyrimidin-2-ylamino]-cyclohexyl}-methanone], the IC50 was 59 nM. Compound `Cc1nnc2n1CCN(C(=O)[C@H]1CC[C@H](Nc3nccc(-n4ccc5c(OC(F)F)cccc54)n3)CC1)C2` [Compound 28, {4-[4-(4-Difluoromethoxy-indol-1-yl)-pyrimidin-2-ylamino]-cyclohexyl}-(3-methyl-5,6-dihydro-8H-[1,2,4]triazolo[4,3-a]pyrazin-7-yl)-methanone] has an IC50 of 228 nM. Work on `C=C(C)c1cccc2c1ccn2-c1ccnc(N[C@H]2CC[C@H](C(=O)N3CCn4c(C)nnc4C3)CC2)n1` [Compound 26, {4-[4-(4-Isopropenyl-indol-1-yl)-pyrimidin-2-ylamino]-cyclohexyl}-(3-methyl-5,6-dihydro-8H-[1,2,4]triazolo[4,3-a]pyrazin-7-yl)-methanone] yielded an IC50 of 174 nM. In the case of `C=C(C)c1cccc2c1ccn2-c1ccnc(N[C@H]2CC[C@H](C(=O)N3CCn4cnnc4C3)CC2)n1` [Compound 25, (5,6-Dihydro-8H-[1,2,4]triazolo[4,3-a]pyrazin-7-yl)-{4-[4-(4-isopropenyl-indol-1-yl)-pyrimidin-2-ylamino]-cyclohexyl}-methanone], the IC50 is reported as 191 nM. Work on `CS(=O)(=O)CCCOc1cccc2c1cnn2-c1ccnc(N[C@H]2CC[C@H](C(=O)N3CCn4cc(C(F)(F)F)nc4C3)CC2)n1` [Compound 13, (4-{4-[4-(3-Methanesulfonyl-propoxy)-indazol-1-yl]-pyrimidin-2-ylamino}-cyclohexyl)-(2-trifluoromethyl-5,6-dihydro-8H-imidazo[1,2-a]pyrazin-7-yl)-methanone] yielded an IC50 of 12 nM. For `C=C(C)c1cccc2c1ccn2-c1ccnc(N[C@H]2CC[C@H](C(=O)N3CCn4c(C)cnc4C3)CC2)n1` [Compound 10, {4-[4-(4-Isopropenyl-indol-1-yl)-pyrimidin-2-ylamino]-cyclohexyl}-(3-methyl-5,6-dihydro-8H-imidazo[1,2-a]pyrazin-7-yl)-methanone], the IC50 was 65 nM. `O=C([C@H]1CC[C@H](Nc2nccc(-n3ccc4c(OC(F)F)cccc43)n2)CC1)N1CCn2cnnc2C1` [Compound 27, {4-[4-(4-Difluoromethoxy-indol-1-yl)-pyrimidin-2-ylamino]-cyclohexyl}-(5,6-dihydro-8H-[1,2,4]triazolo[4,3-a]pyrazin-7-yl)-methanone] showed an IC50 of 269 nM. Compound `O=C([C@H]1CC[C@H](Nc2nccc(-c3cnc4c(C(F)(F)F)cccn34)n2)CC1)N1CCn2cnnc2C1` [Compound 42, (5,6-Dihydro-8H-[1,2,4]triazolo[4,3-a]pyrazin-7-yl)-{4-[4-(8-trifluoromethyl-imidazo[1,2-a]pyridin-3-yl)-pyrimidin-2-ylamino]-cyclohexyl}-methanon] has an IC50 of 205 nM. `Cc1cnc2n1CCN(C(=O)[C@H]1CC[C@H](Nc3nccc(-n4ccc5c(OC(F)F)cccc54)n3)CC1)C2` [Compound 11, {4-[4-(4-Difluoromethoxy-indol-1-yl)-pyrimidin-2-ylamino]-cyclohexyl}-(3-methyl-5,6-dihydro-8H-imidazo[1,2-a]pyrazin-7-yl)-methanone] gave an IC50 of 97 nM. `Cc1nnc2n1CCN(C(=O)[C@H]1CC[C@H](Nc3nccc(-n4ccc5c(OCCCS(C)(=O)=O)cccc54)n3)CC1)C2` [Compound 23, (4-{4-[4-(3-Methanesulfonyl-propoxy)-indol-1-yl]-pyrimidin-2-ylamino}-cyclohexyl)-(3-methyl-5,6-dihydro-8H-[1,2,4]triazolo[4,3-a]pyrazin-7-yl)-methanone] gave an IC50 of 32 nM. With `O=C([C@H]1CC[C@@H](Nc2nccc(-n3nnc4c(C(F)(F)F)cccc43)n2)CC1)N1CCn2cnnc2C1` [Compound 37, (5,6-Dihydro-8H-[1,2,4]triazolo[4,3-a]pyrazin-7-yl)-{4-[4-(4-trifluoromethyl-benzotriazol-1-yl)-pyrimidin-2-ylamino]-cyclohexyl}-methanone] the IC50 was 180 nM. Work on `O=C([C@H]1CC[C@H](Nc2nccc(-n3ccc4c(OCC5CCS(=O)(=O)C5)cccc43)n2)CC1)N1CCn2cnnc2C1` (stereo partly drawn) [Compound 24, (5,6-Dihydro-8H-[1,2,4]triazolo[4,3-a]pyrazin-7-yl)-(4-{4-[4-(1,1-dioxo-tetrahydro-1λ6-thiophen-3-ylmethoxy)-indol-1-yl]-pyrimidin-2-ylamino}-cyclohexyl)-methanone] yielded an IC50 of 17 nM. Compound `Cc1nnc2n1CCN(C(=O)[C@H]1CC[C@H](Nc3nccc(-n4nnc5c(C(C)(C)O)cccc54)n3)CC1)C2` [Compound 39, (4-{4-[4-(1-Hydroxy-1-methyl-ethyl)-benzotriazol-1-yl]-pyrimidin-2-ylamino}-cyclohexyl)-(3-methyl-5,6-dihydro-8H-[1,2,4]triazolo[4,3-a]pyrazin-7-yl)-methanone] has an IC50 of 31 nM. For `Cc1nnc2n1CCN(C(=O)[C@H]1CC[C@H](Nc3nccc(-c4cnc5c(C(F)(F)F)cccn45)n3)CC1)C2` [Compound 43, (3-Methyl-5,6-dihydro-8H-[1,2,4]triazolo[4,3-a]pyrazin-7-yl)-{4-[4-(8-trifluoromethyl-imidazo[1,2-a]pyridin-3-yl)-pyrimidin-2-ylamino]-cyclohexyl}-methanone], the IC50 was 234 nM. For `Cc1cccc2c1nnn2-c1ccnc(N[C@H]2CC[C@H](C(=O)N3CCn4c(C)nnc4C3)CC2)n1` [Compound 35, {4-[4-(4-Methyl-benzotriazol-1-yl)-pyrimidin-2-ylamino]-cyclohexyl}-(3-methyl-5,6-dihydro-8H-[1,2,4]triazolo[4,3-a]pyrazin-7-yl)-methanone], the IC50 was 38 nM.
